Results: paper PMC11672137, “High-Affinity Lectin Ligands Enable the Detection of Pathogenic Pseudomonas aeruginosa Biofilms: Implications for Diagnostics and Therapy” (JACS Au, 2024)
Values joined by “and” are separate entries in the source; they are usually repeats but may differ in a detail not shown here. Equal entries are not always repeated.

Experiments:
[1] = target: T1, LecA (Pseudomonas aeruginosa, UniProt Q05097); assay: Surface plasmon resonance, LecA binding
T1 construct: made in house
T1 sequence (Q05097 whole entry): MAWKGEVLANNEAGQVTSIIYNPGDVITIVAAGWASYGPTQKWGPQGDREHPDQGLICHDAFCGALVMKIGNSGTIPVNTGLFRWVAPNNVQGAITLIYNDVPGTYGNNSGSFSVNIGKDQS
Experimental: Next, binding of the optimized divalent ligand 17 and its synthetic precursor 16 to LecA was evaluated by fluorescence polarization-based (FP) assays,[47] SPR, and ITC. […] Therefore, fluorescent ligand 17 was analyzed in a direct binding experiment by FP. […] The dissociation constants for 16 were 47.2 ± 11.3 nM (ITC) and 47.8 ± 44.1 nM (steady-state SPR), while for 17, the values were 64.1 ± 31.1 nM and 79.3 ± 24.9 nM (steady-state SPR). For the SPR experiments, Kd was also determined by single-cycle kinetic analysis resulting in approximately five times higher affinity, but the data have limited reliability due to suboptimal fit for the kinetic curves (Figures S13B and S14).[58]−[60] […]
Surface plasmon resonance experiments were performed on a BIACORE X100 instrument (GE Healthcare) at 25 °C as described by Zahorska et. al..2 Averages and standard deviations were calculated from three independent experiments. […]
Stability and LecA binding and inhibition of divalent LecA ligands
100 Expe rime ntal data 1:1 fi t 120 Expe rime ntal data 1:1 fi t
100 Expe rime ntal dataSame well1:1 fi t 80 Expe rime ntal data 1:1 fi t
-20 Time [s] -20 Times [s]
100 Expe rime ntal data 1:1 fi t 80 Expe rime ntal data 1:1 fi t mode l
-20 Time [s] -20 Time [s]
(§1) Figure S7: SPR of divalent LecA acylhydrazone ligand S36 and divalent fluorescent ligand S31. Sensorgrams obtained from SPR single-cycle kinetics experiments. Five different concentrations of each compound (0, 10, 50, 100, 200 nM) were sequentially injected to obtain the experimental sensorgrams (orange lines), which were then fitted by a 1:1 model (blue lines) on BIACORE evaluation software.
(also on this page, place not known: 561 and ZAA-116 ZAA-112 100012001400 Response [RU] Experimental fit 100012001400 Response [RU] Experimental fit 100012001400 Response [RU] Experimental fit Response [RU] Experimental fit Response [RU] Experimental fit model 100012001400 Response [RU] Experimental data 1:1 fit Same well) […]
0 kon koff kinetic equilibrium#
Figure S13:C Evaluation of the optimized fluorescent ligand Time (min)17 and its synthetic precursor Time (min)16 in LecA […]
binding assays. (A) Competitive binding (top) and direct binding (bottom) by fluorescence polarization. (B) Kinetic and equilibrium analysis by SPR (0.20 #values with limited reliability, equilibrium not fully reached). Data for one representative experiment are depicted in A0.00ZAA-202 and B. Averages and std. dev. from at least three independent 0.00ZAA-203 […]
30 -0.4Expe rime ntal data0 1:1 fi t 25 -0.20Expe rime ntal data 1:1 fi t […]
25 Expe rime ntal data 1:1 fi t Expe rime ntal data 1:1 fi t
15 Molar Ratio 25 Molar Ratio […]
as §1, with “S14:” for “S7:”, “LecA” for “LecA acylhydrazone”, “16” for “S36”, “17.” for “S31.”

[2] = target: T1, LecA; assay: Isothermal titration calorimetry with LecA; format: binding; conditions: for -TΔS (ITC, average) / N (ITC stoichiometry, average) / ΔG (ITC, average) / ΔH (ITC, average): LecA, average ± s.d.
Experimental: Next, binding of the optimized divalent ligand 17 and its synthetic precursor 16 to LecA was evaluated by fluorescence polarization-based (FP) assays,[47] SPR, and ITC. […] Therefore, fluorescent ligand 17 was analyzed in a direct binding experiment by FP. […] The dissociation constants for 16 were 47.2 ± 11.3 nM (ITC) and 47.8 ± 44.1 nM (steady-state SPR), while for 17, the values were 64.1 ± 31.1 nM and 79.3 ± 24.9 nM (steady-state SPR). For the SPR experiments, Kd was also determined by single-cycle kinetic analysis resulting in approximately five times higher affinity, but the data have limited reliability due to suboptimal fit for the kinetic curves (Figures S13B and S14).[58]−[60]
Figure 3 Evaluation of the optimized fluorescent ligand 17 and its synthetic precursor 16 in LecA binding using thermodynamic analysis by ITC. Data for one representative experiment are depicted. Averages and standard deviation from at least three independent experiments (*two independent experiments). TEXT PRINTED IN THE PICTURE: 16: ΔG [kJ/mol]: -41.9 ± 0.6*; ΔH [kJ/mol]: -89.3 ± 0.8*; -TΔS [kJ/mol]: 47.4 ± 1.4*; N: 0.47 ± 0.03*; Kd [nM]: 47.2 ± 11.3* | 17: ΔG [kJ/mol]: -41.4 ± 1.2; ΔH [kJ/mol]: -83.5 ± 3.2; -TΔS [kJ/mol]: 42.1 ± 4.3; N: 0.50 ± 0.03; Kd [nM]: 64.1 ± 31.1 […]
Isothermal titration calorimetry (ITC) was performed on an iTC200 (Malvern Panalytical) and the data were analyzed using Microcal Origin software (Malvern Panalytical).
LecA (50 µM) in the cell was titrated with ligand (100 µM or 200 µM) in TBS/Ca2+ buffer supplemented with 5% DMSO at 25 °C. Steep titration slopes achieved with the divalent ligands were the result of high amount of protein present and the high binding affinity of the ligand (high ‘value of c’).22 However, LecA protein concentration lower than 50 µM resulted in insufficient signal as a consequence of the low heat released upon binding.
Figure S15: ITC measurements of divalent alkyne ligand 16 with LecA performed in TBS/Ca2+ buffer with 5% […]
Figure S16: ITC measurements of divalent fluorescent ligand 17 with LecA performed in TBS/Ca2+ buffer with […]
50 µM LecA 50 µM LecA 50 µM LecA

[3] = individual experiments, 50 µM LecA

| Structure (SMILES) | Kd ([1]; equilibrium Kd (steady-state SPR), values with limited reliability, equilibrium not fully reached) [nM] | Kd ([1]; kinetic Kd (SPR), single-cycle kinetics, limited reliability, suboptimal fit) [nM] | koff ([1]; read-out: koff (SPR)) [s⁻¹] | kon ([1]; read-out: kon (SPR)) [M⁻¹ s⁻¹] | Kd ([2]; Kd (ITC, average), LecA 50 µM, TBS/Ca2+ with 5% DMSO, 25 °C, average ± s.d. (16: two experiments)) [nM] | Kd ([2]; Kd (ITC, single titration), individual experiments, 50 µM LecA) | -TΔS (ITC, average) ([2]; 25 °C) [kcal/mol] | N (ITC stoichiometry, average) ([2]; 25 °C) | ΔG (ITC, average) ([2]; 25 °C) [kcal/mol] | ΔH (ITC, average) ([2]; 25 °C) [kcal/mol] | -TΔS (ITC, single titration) [2, 3] | N (ITC, single titration) [2, 3] | ΔG (ITC, single titration) [2, 3] | ΔH (ITC, single titration) [2, 3] | Kd ([1]; read-out: equilibrium Kd (steady-state SPR), values with limited reliability, equilibrium not fully reached) [nM] | Kd ([1]; read-out: kinetic Kd (SPR), single-cycle kinetics, limited reliability, suboptimal fit) [nM] | Kd ([2]; read-out: Kd (ITC, average), LecA 50 µM, TBS/Ca2+ with 5% DMSO, 25 °C, average ± s.d. (16: two experiments)) [nM] | Kd ([2]; read-out: Kd (ITC, single titration), individual experiments, 50 µM LecA) |
| --- | --- | --- | --- | --- | --- | --- | --- | --- | --- | --- | --- | --- | --- | --- | --- | --- | --- | --- |
| C#CCCN(Cc1ccc(NC(=O)CCc2ccc(O[C@@H]3O[C@H](CO)[C@H](O)[C@H](O)[C@H]3O)cc2)cc1)Cc1ccc(NC(=O)CCc2ccc(O[C@@H]3O[C@H](CO)[C@H](O)[C@H](O)[C@H]3O)cc2)cc1 [compound 16] | 47.8 ± 44.1 | 9.9 ± 0.5 | 0.00359 ± 0.0013 | 359000 ± 110000 | 47.2 ± 11.3 | 36 nM and 58.5 nM | 11.3 ± 0.335 | 0.47 ± 0.03 | -10 ± 0.14 | -21.3 ± 0.19 | 48,8 kJ/mol and 45,9 kJ/mol | 0,45 and 0,50 | -41,3 kJ/mol and -42,5 kJ/mol | -90,1 kJ/mol and -88,5 kJ/mol |  |  |  |  |
| O=C(CCc1ccc(O[C@@H]2O[C@H](CO)[C@H](O)[C@H](O)[C@H]2O)cc1)Nc1ccc(CN(CCc2cn(CCOCCOCCOCCNC(=S)Nc3ccc4c(c3)C(=O)OC43c4ccc(O)cc4Oc4cc(O)ccc43)nn2)Cc2ccc(NC(=O)CCc3ccc(O[C@@H]4O[C@H](CO)[C@H](O)[C@H](O)[C@H]4O)cc3)cc2)cc1 [compound 17] |  |  |  |  |  |  | 10.1 ± 1.03 | 0.50 ± 0.03 | -9.89 ± 0.287 | -20 ± 0.765 | 38,3 kJ/mol and 39,8 kJ/mol and 48,2 kJ/mol | 0,46 and 0,52 and 0,51 | -42,9 kJ/mol and -41,5 kJ/mol and -39,8 kJ/mol | -81,2 kJ/mol and -81,3 kJ/mol and -88,1 kJ/mol | 79.3 ± 24.9 | 19.3 ± 10.5 | 64.1 ± 31.1 | 31.3 nM and 55.3 nM and 106 nM |
